What was measured:
[1] = tested on: Leishmania donovani; assay: GSK_TCAKS: pIC50 Leishmania donovani viability assay using fluorescence intensity. Assay plates (1536-well) were prepared by adding 30nL per well of compound. For single shot assay, the final compound concentration was 5uM. […] Briefly, eGFP LdBOB axenic amastigotes were harvested, fixed and counted in a CASY cell counter (Roche-Applied Science). A final concentration of 1.5 * 10^5 cells per well were prepared in amastigote media containing 500 U/mL penicillin/streptomycin (Invitrogen) and 6uL was dispensed to each experimental well using a Multidrop Combi dispenser (Thermo Scientific). 6uL of assay media was dispensed to control columns used as reference for 100% compound response. Following incubation for 72 h at 37C, 5% CO2, 2 uL of resazurin was added to each well at a final concentration of 0.5 mM in phosphate buffered saline (PBS) with IGEPAL (Sigma-Aldrich), 0.05% (v/v).; assay type: functional, organism-based
[2] = tested on: Trypanosoma cruzi; assay: (§1) GSK_TCAKS: pIC50 Trypanosoma cruzi Imaging: Infected Cells. […] Cells were then washed once with PBS before infection. T. cruzi trypomastigotes, collected at days 5 to 8 after infection from LLC-MK2 parasite infected cultures, were allowed to swim out for 4h at 37C from a centrifuged pellet (2,500 rpm/10 min/room temperature). Trypomastigotes were then collected and counted in a CASY Cell Counter. Trypomastigotes, in supplemented DMEM, were added to H9c2 cultures in a multiplicity of infection of 1 and incubated for 18 h. Cells were washed once with PBS before incubation of the infected H9c2 monolayer with trypsin (Life-Technologies) to detach cells from the flask. Cells were counted in a CASY Cell Counter using a 150 um capillary and their density set at 5 * 10^4 cells per mL in supplemented assay DMEM. Infected H9c2 were dispensed into 384-well poly-lysine coated assay plates at 50uL per well using a Multidrop Combi dispenser. After seeding them, the plates were incubated at 37C, 5% CO2 for 72h. Cultures were then fixed and stained by addition of 50 uL of a solution containing 8% formaldehyde and 4 uM DRAQ5 DNA dye (BioStatus, UK) per well. […] Five images were collected per well for reliable statistical analysis. Automated image analysis was performed with a script developed on Acapella High Content Imaging and Analysis Software (PerkinElmer). Output: percentage of infected cells per well as a second infection marker.; assay type: functional, organism-based, Rattus norvegicus; settings: H9c2, 4 h
[3] = tested on: Trypanosoma brucei brucei; assay: GSK_TCAKS: pIC50 Trypanosoma brucei viability assay using luminiscence. Assay plates (1536-well) were prepared. T. brucei cultures were harvested and counted in a CASY cell counter. A parasite suspension was prepared at a final concentration of 5 * 10^4 cells/mL in complete HMI9 medium and 6uL was dispensed to all wells containing compounds using a Multidrop Combi dispenser. 6uL of HMI9 media with 0.4% DMSO were dispensed to control columns. Plates were incubated for 24 h at 37C, 5% CO2 then tempered for 10 min at room temperature. ATP content was quantified by adding 4 uL of CellTiter-Glo Reagent (Promega) according to the manufacturer's instructions. Luminescence was measured using a ViewLux.; assay type: functional, organism-based; settings: Lister 427, CASY
[4] = tested on: Trypanosoma cruzi; assay: as §1, with “H2C9” for “Trypanosoma cruzi”, “H9c2 Host Cardiomyocytes.” for “Infected Cells.”, “Number” for “percentage”, “H9c2 Host Cardiomyocytes nuclei to determine drug-related cytotoxicity.” for “infected cells per well as a second infection marker.”; assay type: functional, organism-based, Rattus norvegicus; settings: H9c2, 4 h
[5] = GSK_TCAKS: pIC50 HepG2 human cell line viability assay using luminiscence. […] Seeding density was checked to ensure that new mono-layers were not more than 50% confluent at the time of harvesting. Cell suspension was added to 500 mL of the same medium at a final density of 1.2 * 10^5 cells/mL. This cell suspension was dispensed (25 uL, 3000 cells per well) into 384-well clear-bottom plates using a Multidrop Combi dispenser. Prior to addition of the cell suspension, the screening compounds (250 nL) were pre-dispensed into the plates with an Echo liquid handler. Plates were incubated for 48 h at 37C, 5% CO2. After incubation, plates equilibrated at room temperature for 30 min before proceeding to develop the luminescent signal. The signal developer, CellTiter-Glo Reagent, was allowed to equilibrate at room temperature for 30 min and added to the plates (25uL per well) using a Multidrop Combi dispenser. Plates were left for 10 min at room temperature for stabilization and then read using a ViewLux.; assay type: toxicity, cell-based
[6] = tested on: Trypanosoma cruzi; assay: GSK_TCAKS: pIC50 Trypanosoma cruzi Imaging: Amastigotes/Cell. […] Cells were then washed once with PBS before infection. T. cruzi trypomastigotes, collected at days 5 to 8 after infection from LLC-MK2 parasite infected cultures, were allowed to swim out for 4h at 37C from a centrifuged pellet (2,500 rpm/10 min/room temperature). Trypomastigotes were then collected and counted in a CASY Cell Counter. Trypomastigotes, in supplemented DMEM, were added to H9c2 cultures in a multiplicity of infection of 1 and incubated for 18 h. Cells were washed once with PBS before incubation of the infected H9c2 monolayer with trypsin (Life-Technologies) to detach cells from the flask. Cells were counted in a CASY Cell Counter using a 150 um capillary and their density set at 5 * 10^4 cells per mL in supplemented assay DMEM. Infected H9c2 were dispensed into 384-well poly-lysine coated assay plates at 50uL per well using a Multidrop Combi dispenser. After seeding them, the plates were incubated at 37C, 5% CO2 for 72h. Cultures were then fixed and stained by addition of 50 uL of a solution containing 8% formaldehyde and 4 uM DRAQ5 DNA dye (BioStatus, UK) per well. […] Five images were collected per well for reliable statistical analysis. Automated image analysis was performed with a script developed on Acapella High Content Imaging and Analysis Software (PerkinElmer). Output: number of amastigotes per cell as infection level measurement.; assay type: functional, organism-based, Rattus norvegicus; settings: H9c2, 4 h
[7] = tested on: Leishmania donovani; assay: GSK_TCAKS: pIC50 Leishmania donovani Imaging: Infected Macrophages. Assay plates (384-well) were prepared by adding 250nL of compound to each well. For single shot assay, the final compound concentration was 5 uM. […] Automated image analysis was performed with a script developed on Acapella High Content Imaging and Analysis Software (PerkinElmer). Output: Percent of infected macrophage cells were reported for each well.; assay type: functional, organism-based, Homo sapiens; settings: THP-1
[8] = tested on: Trypanosoma brucei brucei; assay: GSK_TCAKS: pIC50 Trypanosoma brucei viability assay using fluorescence intensity. Assay plates (1536-well) were prepared by dispensing 25nL of compound solution per well using an Echo acoustic dispenser (Labcyte).; assay type: functional, organism-based; settings: Lister 427, 2 h
[9] = tested on: Leishmania donovani; assay: GSK_TCAKS: pIC50 Leishmania donovani Imaging: Amastigotes/Macrophages. Assay plates (384-well) were prepared by adding 250nL of compound to each well. For single shot assay, the final compound concentration was 5 uM. […] Automated image analysis was performed with a script developed on Acapella High Content Imaging and Analysis Software (PerkinElmer). Output: Average number of amastigotes per macrophage cell were reported for each well.; assay type: functional, organism-based, Homo sapiens; settings: THP-1
[10] = tested on: NIH3T3; assay: GSK_TCAKS: pIC50 NIH 3T3 cell line viability assay using luminiscence. Tissue culture surface treated assay plates (1536-well) were used. […] The 100% cells survival control was determined exposing the host-cells to a 0.5% DMSO concentration, whereas the 100% toxicity control was achieved by seeding the cells in presence of Amphotericin B at 50uM. Plates were incubated for four days at 37C, 5% CO2. The assay readout was developed by addition of 5uL of CellTiter-Glo Reagent following the manufacturer's instructions. Luminiscence was measured using a ViewLux.; assay type: functional, cell-based; settings: Mus musculus, NIH3T3, 96 h
[11] = tested on: Leishmania donovani; assay: GSK_TCAKS: pIC50 Leishmania donovani Imaging: THP-1 Host Macrophages. Assay plates (384-well) were prepared by adding 250nL of compound to each well. For single shot assay, the final compound concentration was 5 uM. […] Automated image analysis was performed with a script developed on Acapella High Content Imaging and Analysis Software (PerkinElmer). Output: THP-1 cell count were reported for each well.; assay type: functional, organism-based, Homo sapiens
[12] = target: Sterol 14-alpha demethylase (Trypanosoma cruzi (strain CL Brener), UniProt Q7Z1V1); assay: GSK_TCAKS: pIC50 CYP51 from Trypanosoma cruzi.; assay type: functional
[13] = tested on: Trypanosoma cruzi; assay: GSK_TCAKS: pIC50 Trypanosoma cruzi viability assay using beta-GAL activity. This assay was run at single shot at 5uM compound concentration per well. The biological reagents consisted of NIH-3T3 host cells and trypomastigotes parasitic cells; both cell types were set to a 3.3 * 10^5 cells/mL dilution in assay DMEM by means of a CASY cell counter device using a 60um capillary. 6 uL of the mixture were dispensed per well (about 1 * 10^3 host-cells and 1 * 10^3 parasites) with a Multidrop Combi dispenser. […] In all wells, the percentage of DMSO never exceeded 0.5%. Plates incubated for four days at 37C, 5% CO2. The substrate used for the assay fluorescence intensity (FLINT) readout was resorufin-beta-D-galactopiranoside (Sigma-Aldrich) at 5uM per well. It was diluted in PBS supplemented with the soft detergent Igepal (Fluka).; assay type: functional, organism-based, Mus musculus; settings: Tulahuen, NIH3T3

Chain of Sterol 14-alpha demethylase (Q7Z1V1 whole entry): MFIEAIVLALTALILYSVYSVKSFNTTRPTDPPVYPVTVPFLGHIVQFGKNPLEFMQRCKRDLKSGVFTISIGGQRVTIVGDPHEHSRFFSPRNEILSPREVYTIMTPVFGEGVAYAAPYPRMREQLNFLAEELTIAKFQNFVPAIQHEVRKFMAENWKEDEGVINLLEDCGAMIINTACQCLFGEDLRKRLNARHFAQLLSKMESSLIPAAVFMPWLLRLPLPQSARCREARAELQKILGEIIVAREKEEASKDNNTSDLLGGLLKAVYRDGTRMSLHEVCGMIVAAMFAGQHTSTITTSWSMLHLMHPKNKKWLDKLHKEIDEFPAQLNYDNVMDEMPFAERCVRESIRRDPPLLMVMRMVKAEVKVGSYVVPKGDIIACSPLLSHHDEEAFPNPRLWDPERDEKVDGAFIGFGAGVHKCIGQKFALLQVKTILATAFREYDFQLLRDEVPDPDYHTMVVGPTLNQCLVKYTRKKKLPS

| Compound | IC50 [1] [µM] | IC50 [2] [µM] | IC50 [3] [µM] | IC50 [4] [µM] | IC50 at 48 h [5] [µM] | IC50 [6] [µM] | IC50 [7] [µM] | IC50 [8] [µM] | IC50 [9] [µM] | IC50 [10] [µM] | IC50 [11] [µM] | IC50 [12] [µM] | IC50 [13] [µM] |
| --- | --- | --- | --- | --- | --- | --- | --- | --- | --- | --- | --- | --- | --- |
| Cc1ccc(CNC2CCN(C[C@@H]3Cn4c(=O)ccc5ccc(=O)n3c54)CC2)cc1F | > 50.1 | 1.26 | 2 | > 50.1 | > 100 | 1 | > 50.1 | 1.58 | > 50.1 | 15.8 | > 50.1 | > 100 | 1.26 |
| CC(=O)Nc1ccc(-c2noc(CC3CCCN(Cc4cccc(F)c4C)C3)n2)cc1 (stereo not given) | 39.8 | 2 | 25.1 | 31.6 | > 100 | 1.26 | 31.6 | 20 | 12.6 | 25.1 | > 50.1 | > 100 | 1 |
| N#Cc1ccc(S(=O)(=O)N2CCC3(CCN(c4ccccc4)C3=O)CC2)cc1 | > 50.1 | 1 | > 39.8 | > 50.1 | > 100 | 0.631 | > 50.1 | > 39.8 | > 50.1 | > 50.1 | > 50.1 | > 100 | 1.26 |
| Cc1cccc(NS(=O)(=O)c2cnc3sc(C)cn3c2=O)c1 | > 50.1 | 2 | > 39.8 | 6.31 | > 100 | 1 | > 50.1 | > 39.8 | 5.01 | > 50.1 | > 50.1 | > 100 | 1.26 |
| O=C(N1CCc2ccccc2CC1)C1(C(=O)N2CCC(n3c(=O)[nH]c4ncccc43)CC2)CC1 | > 50.1 | 0.794 | > 39.8 | > 50.1 | > 100 | 0.631 | > 50.1 | > 39.8 | > 50.1 | 39.8 | > 50.1 | 0.316 | 0.631 |
| COc1ccc2ncc(=O)n(CCN3CCOC(CNCc4ccc(C(F)(F)F)cc4F)C3)c2n1 (stereo not given) | 39.8 | 1.58 | 2.51 | > 50.1 | > 100 | 0.631 | > 50.1 | 0.631 | > 50.1 | 3.98 | > 50.1 | 10 | 0.398 |
| CS(=O)(=O)c1cccc(CNC(=O)c2cncc(N3CCN(c4ccc(F)cc4)CC3)c2)c1 | > 50.1 | 0.398 | > 39.8 | > 50.1 | > 100 | 0.251 | > 50.1 | 31.6 | > 50.1 | 25.1 | > 50.1 | 12.6 | 0.631 |
| O[C@H]1CC[C@H](Nc2nccc(-c3sc(C4CCOCC4)nc3-c3ccc(F)c(F)c3)n2)CC1 | 3.16 | 0.316 | 3.98 | 31.6 | 25.1 | 0.2 | 5.01 | 2 | 2.51 | 39.8 | 20 | > 100 | 0.316 |
| O=c1oc2ccccc2n1C1CCN(Cc2ccccc2-c2cccnc2)CC1 | > 50.1 | 0.316 | > 39.8 | > 50.1 | > 100 | 0.398 | > 50.1 | 39.8 | 6.31 | 15.8 | 12.6 | 0.1 | 0.501 |
| Cc1c(C(C)NC(=O)Nc2cccc(Cl)c2)sc2ncnn12 (stereo not given) | 2 | 0.2 | > 39.8 | > 50.1 | > 100 | 0.158 | > 50.1 | 20 | 2 | > 50.1 | > 50.1 | 0.126 | 0.141 |
